SMILES strings stand for the structures. Some results are limits rather than exact numbers.

Data set [1] addresses Ephrin type-A receptor 7 (Homo sapiens) (UniProt Q15375). The data set can be described thus: Selectivity interaction (LanthaScreen Eu Kinase Binding Assay) EUB0001632a EPHA7. As to conditions: at 10 µM. A general note: Time-resolved FRET reads energy transfer from a long-lived donor to a nearby acceptor.
In data set [2] the target is Wee1-like protein kinase 2 (Homo sapiens) (UniProt P0C1S8). The data set can be described thus: Selectivity interaction (KinomeScan (DiscoverX)) EUB0000695a WEE2. As to conditions: at 100 nM.
Data set [3] addresses Ribosomal protein S6 kinase alpha-2 (Homo sapiens) (UniProt Q15349). The data set can be described thus: Selectivity interaction (KinomeScan (DiscoverX)) EUB0000045b RPS6KA2.
Data set [4] deals with Casein kinase I isoform alpha (Homo sapiens, UniProt P48729). The data set can be described thus: Selectivity interaction (Kinase panel (literature)) EUB0001199aCl CSNK1A1. As to conditions: at 1 µM.
The target of data set [5] is T1, Tyrosine-protein kinase TXK (Homo sapiens) (UniProt P42681).
T1 sequence (whole entry): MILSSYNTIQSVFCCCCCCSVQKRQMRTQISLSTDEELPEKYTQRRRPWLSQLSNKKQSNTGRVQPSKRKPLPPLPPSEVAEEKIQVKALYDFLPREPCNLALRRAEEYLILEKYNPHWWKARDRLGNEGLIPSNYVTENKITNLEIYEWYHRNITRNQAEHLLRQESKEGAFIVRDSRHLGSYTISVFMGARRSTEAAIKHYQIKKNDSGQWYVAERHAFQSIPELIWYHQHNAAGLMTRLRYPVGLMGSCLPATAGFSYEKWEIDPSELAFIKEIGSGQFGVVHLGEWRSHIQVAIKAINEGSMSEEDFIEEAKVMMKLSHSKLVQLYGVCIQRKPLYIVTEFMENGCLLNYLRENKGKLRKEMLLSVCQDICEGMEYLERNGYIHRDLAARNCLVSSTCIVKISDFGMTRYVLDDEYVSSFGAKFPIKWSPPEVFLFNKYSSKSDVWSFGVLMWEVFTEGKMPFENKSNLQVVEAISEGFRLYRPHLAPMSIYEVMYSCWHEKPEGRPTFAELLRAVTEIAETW
The data set can be described thus: Selectivity interaction (Ambit KINOMEscan and KiNATiv profiling in Jurkat cells) EUB0000090b TXK. As to conditions: at 1 µM. The format is cell-based.

For data set [6], the target named is T2, Serine/threonine-protein kinase 17B (Homo sapiens) (UniProt O94768).
T2 sequence (whole entry): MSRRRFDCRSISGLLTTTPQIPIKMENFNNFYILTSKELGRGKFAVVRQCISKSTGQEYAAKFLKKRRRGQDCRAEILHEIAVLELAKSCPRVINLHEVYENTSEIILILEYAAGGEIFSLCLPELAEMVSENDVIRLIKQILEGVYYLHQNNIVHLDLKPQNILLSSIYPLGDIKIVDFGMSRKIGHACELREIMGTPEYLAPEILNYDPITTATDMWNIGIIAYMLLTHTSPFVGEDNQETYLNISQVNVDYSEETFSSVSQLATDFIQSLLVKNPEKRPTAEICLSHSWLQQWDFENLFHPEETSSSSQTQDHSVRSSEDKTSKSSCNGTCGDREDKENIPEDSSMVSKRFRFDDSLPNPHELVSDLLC
The data set can be described thus: Selectivity interaction (KinomeScan (DiscoverX)) EUB0001049a STK17B. As to conditions: at 1 µM.

Data set [7] concerns the target Myosin light chain kinase 2, skeletal/cardiac muscle (Homo sapiens) (UniProt Q9H1R3). The data set can be described thus: Selectivity interaction (KinomeScan (DiscoverX)) EUB0001079a MYLK2. The following applies: at 1 µM.
Data set [8] addresses T3, Serine/threonine-protein kinase TNNI3K (Homo sapiens) (UniProt Q59H18).
T3 sequence (whole entry): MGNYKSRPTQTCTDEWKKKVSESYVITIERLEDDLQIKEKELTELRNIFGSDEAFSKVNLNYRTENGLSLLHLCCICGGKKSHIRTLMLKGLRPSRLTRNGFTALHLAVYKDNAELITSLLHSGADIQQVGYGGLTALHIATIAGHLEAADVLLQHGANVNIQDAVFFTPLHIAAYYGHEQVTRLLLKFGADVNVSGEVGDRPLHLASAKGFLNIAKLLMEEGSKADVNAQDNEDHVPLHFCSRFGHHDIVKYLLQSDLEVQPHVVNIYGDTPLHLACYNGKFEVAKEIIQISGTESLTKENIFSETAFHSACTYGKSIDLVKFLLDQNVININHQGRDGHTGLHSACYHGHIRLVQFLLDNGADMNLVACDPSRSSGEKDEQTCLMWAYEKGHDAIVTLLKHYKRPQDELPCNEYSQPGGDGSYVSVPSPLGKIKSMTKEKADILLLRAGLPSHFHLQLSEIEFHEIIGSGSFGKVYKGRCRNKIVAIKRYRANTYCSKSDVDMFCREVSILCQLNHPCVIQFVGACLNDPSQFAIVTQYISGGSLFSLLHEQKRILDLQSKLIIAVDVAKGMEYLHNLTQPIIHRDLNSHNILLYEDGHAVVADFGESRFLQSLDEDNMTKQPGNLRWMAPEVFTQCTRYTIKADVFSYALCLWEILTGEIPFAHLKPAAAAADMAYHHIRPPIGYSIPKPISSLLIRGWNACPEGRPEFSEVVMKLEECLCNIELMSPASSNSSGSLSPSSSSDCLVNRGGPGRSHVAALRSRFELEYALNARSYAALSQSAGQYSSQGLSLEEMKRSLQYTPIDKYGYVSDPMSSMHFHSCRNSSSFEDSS
The data set can be described thus: Selectivity interaction (KinomeScan (DiscoverX)) EUB0001079a TNNI3K. The following applies: at 1 µM.

The target of data set [9] is L-type calcium channel Cav1.2 (CACNA1C) (Homo sapiens, UniProt Q13936). The data set can be described thus: Selectivity interaction (Panel of kinases, GPCRs, ion channels and transporters (enzymatic assay)) EUB0000266bCl CACNA1C.
The target in data set [10] is T4, Serine/threonine-protein kinase ICK (Homo sapiens) (UniProt Q9UPZ9).
T4 sequence (whole entry): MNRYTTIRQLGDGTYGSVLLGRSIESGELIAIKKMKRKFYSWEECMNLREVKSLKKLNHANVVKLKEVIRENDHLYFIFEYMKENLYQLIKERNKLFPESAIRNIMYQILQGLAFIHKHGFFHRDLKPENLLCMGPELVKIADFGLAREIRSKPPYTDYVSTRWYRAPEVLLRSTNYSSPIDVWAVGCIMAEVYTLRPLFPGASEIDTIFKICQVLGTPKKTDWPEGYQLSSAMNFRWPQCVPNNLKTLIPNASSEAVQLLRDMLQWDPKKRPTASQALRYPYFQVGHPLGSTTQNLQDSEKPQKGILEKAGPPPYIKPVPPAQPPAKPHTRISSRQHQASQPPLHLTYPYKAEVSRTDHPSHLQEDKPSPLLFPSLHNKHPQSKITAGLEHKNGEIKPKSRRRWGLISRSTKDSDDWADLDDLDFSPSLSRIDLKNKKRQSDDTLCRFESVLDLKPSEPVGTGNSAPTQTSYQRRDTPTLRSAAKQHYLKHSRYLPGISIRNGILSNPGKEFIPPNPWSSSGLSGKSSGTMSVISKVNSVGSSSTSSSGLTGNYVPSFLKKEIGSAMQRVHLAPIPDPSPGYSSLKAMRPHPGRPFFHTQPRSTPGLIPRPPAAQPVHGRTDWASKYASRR
The data set can be described thus: Selectivity interaction (KinomeScan (DiscoverX)) EUB0000229b ICK. The following applies: at 10 µM.

Chain of Ribosomal protein S6 kinase alpha-2 (Homo sapiens) (Q15349 whole entry, canonical isoform): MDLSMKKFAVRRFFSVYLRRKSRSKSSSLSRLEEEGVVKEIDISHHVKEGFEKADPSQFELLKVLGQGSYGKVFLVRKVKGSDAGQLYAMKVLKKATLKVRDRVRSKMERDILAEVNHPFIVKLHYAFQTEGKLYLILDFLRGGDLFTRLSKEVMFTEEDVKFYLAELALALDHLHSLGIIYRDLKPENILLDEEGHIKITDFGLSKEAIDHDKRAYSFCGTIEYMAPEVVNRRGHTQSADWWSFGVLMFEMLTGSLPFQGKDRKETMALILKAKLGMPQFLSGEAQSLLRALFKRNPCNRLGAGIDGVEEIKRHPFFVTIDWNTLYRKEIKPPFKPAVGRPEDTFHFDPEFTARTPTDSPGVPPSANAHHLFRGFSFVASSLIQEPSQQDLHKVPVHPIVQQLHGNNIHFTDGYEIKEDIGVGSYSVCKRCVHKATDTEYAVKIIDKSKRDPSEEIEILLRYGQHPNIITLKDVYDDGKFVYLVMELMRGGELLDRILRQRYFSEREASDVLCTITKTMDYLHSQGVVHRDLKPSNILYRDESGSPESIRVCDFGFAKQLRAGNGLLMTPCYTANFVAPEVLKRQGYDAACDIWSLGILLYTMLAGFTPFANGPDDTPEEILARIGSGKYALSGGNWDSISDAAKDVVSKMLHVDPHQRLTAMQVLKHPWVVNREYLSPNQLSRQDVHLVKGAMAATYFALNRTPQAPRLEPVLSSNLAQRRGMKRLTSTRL
Chain of Myosin light chain kinase 2, skeletal/cardiac muscle (Homo sapiens) (Q9H1R3 whole entry): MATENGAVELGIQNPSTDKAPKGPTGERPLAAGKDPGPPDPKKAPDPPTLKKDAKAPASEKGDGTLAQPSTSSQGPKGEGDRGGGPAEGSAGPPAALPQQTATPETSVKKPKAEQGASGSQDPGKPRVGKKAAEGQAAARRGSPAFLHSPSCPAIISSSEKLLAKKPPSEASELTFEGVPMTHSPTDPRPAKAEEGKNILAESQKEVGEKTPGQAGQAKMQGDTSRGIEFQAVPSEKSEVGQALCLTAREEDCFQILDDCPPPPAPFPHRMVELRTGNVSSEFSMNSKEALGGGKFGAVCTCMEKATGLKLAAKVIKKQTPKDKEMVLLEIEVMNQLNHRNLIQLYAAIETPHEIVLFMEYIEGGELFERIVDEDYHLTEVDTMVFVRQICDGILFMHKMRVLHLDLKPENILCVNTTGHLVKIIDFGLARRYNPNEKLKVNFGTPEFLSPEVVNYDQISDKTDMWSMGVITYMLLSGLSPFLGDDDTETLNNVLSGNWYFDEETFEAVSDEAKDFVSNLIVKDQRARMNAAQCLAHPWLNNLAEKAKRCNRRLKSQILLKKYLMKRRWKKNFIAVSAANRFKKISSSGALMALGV
Chain of L-type calcium channel Cav1.2 (CACNA1C) (Q13936 whole entry): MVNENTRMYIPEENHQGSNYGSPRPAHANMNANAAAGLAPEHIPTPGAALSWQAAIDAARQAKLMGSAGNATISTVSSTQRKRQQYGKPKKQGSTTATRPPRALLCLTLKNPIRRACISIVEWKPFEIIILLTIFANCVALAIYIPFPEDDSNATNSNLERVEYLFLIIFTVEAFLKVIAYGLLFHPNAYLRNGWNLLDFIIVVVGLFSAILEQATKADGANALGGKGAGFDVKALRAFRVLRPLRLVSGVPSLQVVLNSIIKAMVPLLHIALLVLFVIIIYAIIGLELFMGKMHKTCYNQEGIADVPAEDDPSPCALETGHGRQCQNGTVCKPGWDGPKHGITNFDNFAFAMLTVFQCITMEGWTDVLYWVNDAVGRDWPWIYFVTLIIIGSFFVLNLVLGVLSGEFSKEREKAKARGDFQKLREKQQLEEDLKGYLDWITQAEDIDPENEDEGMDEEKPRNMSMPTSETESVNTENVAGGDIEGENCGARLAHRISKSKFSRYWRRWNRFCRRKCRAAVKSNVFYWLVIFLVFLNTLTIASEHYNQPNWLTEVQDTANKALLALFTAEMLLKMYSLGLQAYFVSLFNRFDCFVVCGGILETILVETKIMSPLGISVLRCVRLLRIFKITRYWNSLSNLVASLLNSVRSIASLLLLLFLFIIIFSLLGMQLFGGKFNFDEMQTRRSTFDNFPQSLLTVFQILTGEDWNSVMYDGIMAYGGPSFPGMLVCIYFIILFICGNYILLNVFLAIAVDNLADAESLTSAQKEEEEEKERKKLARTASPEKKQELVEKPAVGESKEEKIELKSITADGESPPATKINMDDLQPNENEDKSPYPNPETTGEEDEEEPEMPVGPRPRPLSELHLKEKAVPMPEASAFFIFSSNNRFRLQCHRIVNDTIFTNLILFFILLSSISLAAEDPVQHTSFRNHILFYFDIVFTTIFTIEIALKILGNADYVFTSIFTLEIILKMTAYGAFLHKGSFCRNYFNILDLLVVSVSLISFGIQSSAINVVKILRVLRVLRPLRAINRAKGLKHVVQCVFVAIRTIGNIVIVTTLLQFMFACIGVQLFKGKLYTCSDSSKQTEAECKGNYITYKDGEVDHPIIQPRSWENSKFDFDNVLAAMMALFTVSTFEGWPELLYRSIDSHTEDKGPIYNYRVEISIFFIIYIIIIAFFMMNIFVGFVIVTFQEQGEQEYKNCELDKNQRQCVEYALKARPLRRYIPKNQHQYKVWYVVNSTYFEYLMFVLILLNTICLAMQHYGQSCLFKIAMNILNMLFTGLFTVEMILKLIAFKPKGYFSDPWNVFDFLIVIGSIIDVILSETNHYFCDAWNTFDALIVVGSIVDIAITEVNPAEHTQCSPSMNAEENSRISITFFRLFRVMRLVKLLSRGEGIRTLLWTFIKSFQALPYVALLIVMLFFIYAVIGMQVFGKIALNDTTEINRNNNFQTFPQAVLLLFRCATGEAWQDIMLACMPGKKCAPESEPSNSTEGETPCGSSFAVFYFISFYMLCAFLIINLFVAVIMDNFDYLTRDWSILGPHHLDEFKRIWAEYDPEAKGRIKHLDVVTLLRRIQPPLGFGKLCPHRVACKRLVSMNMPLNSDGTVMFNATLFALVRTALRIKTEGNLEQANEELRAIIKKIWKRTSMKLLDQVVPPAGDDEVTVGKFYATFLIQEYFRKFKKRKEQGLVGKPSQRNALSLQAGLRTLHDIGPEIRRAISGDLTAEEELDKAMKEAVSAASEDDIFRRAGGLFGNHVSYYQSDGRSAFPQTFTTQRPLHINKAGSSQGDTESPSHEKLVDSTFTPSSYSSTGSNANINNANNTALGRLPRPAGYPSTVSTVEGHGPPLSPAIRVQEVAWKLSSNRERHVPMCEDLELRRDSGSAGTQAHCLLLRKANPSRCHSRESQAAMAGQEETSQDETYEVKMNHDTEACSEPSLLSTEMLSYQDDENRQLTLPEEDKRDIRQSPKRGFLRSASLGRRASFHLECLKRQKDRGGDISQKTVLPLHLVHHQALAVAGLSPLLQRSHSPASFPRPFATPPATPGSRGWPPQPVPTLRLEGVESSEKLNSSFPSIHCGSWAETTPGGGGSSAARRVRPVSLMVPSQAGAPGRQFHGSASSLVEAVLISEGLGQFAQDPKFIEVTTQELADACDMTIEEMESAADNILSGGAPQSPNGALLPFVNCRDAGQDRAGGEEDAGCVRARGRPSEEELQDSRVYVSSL
Chain of Wee1-like protein kinase 2 (Homo sapiens) (P0C1S8 whole entry, looked up): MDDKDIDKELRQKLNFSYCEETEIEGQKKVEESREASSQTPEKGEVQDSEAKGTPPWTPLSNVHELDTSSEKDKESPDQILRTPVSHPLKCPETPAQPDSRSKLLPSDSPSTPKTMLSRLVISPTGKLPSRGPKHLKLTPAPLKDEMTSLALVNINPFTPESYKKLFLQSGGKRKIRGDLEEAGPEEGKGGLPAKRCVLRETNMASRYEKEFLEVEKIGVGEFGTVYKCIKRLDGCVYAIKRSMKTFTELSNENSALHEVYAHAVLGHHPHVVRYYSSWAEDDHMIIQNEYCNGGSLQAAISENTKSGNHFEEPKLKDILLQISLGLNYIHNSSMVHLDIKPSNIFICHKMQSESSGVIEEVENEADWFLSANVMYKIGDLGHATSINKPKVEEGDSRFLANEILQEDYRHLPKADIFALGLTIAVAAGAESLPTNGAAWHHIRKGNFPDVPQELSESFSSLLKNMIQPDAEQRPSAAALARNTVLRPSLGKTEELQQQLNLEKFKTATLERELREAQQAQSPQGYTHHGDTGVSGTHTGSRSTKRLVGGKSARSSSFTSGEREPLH
Chain of Ephrin type-A receptor 7 (Homo sapiens) (Q15375 28-998 limits assumed): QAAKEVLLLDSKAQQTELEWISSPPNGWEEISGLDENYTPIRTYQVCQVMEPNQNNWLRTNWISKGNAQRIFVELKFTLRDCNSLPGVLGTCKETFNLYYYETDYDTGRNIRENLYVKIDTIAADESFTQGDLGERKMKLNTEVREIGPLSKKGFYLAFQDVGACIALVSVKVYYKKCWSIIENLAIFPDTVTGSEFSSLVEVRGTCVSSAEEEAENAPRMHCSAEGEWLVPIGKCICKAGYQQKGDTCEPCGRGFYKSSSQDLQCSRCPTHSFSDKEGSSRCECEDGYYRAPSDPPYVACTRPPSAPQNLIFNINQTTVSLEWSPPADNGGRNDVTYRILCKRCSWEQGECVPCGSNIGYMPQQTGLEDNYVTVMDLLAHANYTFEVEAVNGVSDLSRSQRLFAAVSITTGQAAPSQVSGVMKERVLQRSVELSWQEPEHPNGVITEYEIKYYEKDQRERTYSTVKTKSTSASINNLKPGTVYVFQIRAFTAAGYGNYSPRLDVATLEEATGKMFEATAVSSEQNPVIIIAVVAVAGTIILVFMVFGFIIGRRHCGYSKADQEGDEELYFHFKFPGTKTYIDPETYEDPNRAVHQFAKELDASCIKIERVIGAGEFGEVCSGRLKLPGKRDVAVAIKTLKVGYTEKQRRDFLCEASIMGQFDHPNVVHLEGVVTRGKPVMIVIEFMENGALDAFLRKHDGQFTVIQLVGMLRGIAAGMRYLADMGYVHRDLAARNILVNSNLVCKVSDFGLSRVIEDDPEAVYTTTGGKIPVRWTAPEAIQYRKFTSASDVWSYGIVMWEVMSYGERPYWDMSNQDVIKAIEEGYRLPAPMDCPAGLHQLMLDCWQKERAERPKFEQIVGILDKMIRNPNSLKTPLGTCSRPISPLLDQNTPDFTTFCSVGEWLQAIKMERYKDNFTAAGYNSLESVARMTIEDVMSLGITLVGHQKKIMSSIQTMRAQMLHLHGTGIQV

For `Cn1cc(-n2cnc3c(NCc4nc5cc(Cl)c(Cl)cc5[nH]4)nc(N4CCOCC4)nc32)cn1`, the % of inhibition in data set [1] was -69.8%.

In turn, `Cc1cc(F)c(C(=O)Nc2cccc(-c3nncn3C(C)C)n2)cc1-n1cnc(C2CC2)c1` had a % of control in [2] of 100%. Consider `C=CC(=O)Nc1cc(-n2c(=O)ccc3cnc4ccc(-c5ccc(NS(C)(=O)=O)cc5)cc4c32)ccc1C`, for which the % of control in [3] (at 1 µM) came out at 100%; in data set [3] (at 10 µM), 68%. Take `CN1Cc2nccc(-c3cn(C)nc3-c3ccc(F)cc3)c2C1=O`: the % of inhibition in data set [4] is 51%. In the case of `CN(C)C/C=C/C(=O)Nc1ccc(C(=O)N2CCCC(Nc3ncc(Cl)c(-c4c[nH]c5ccccc45)n3)C2)cc1` (stereo unspecified), the % of control in [5] worked out at 94%. `COc1cc(Nc2nc(C)cc(-c3cnn4nc(OC)ccc34)n2)cc(C(F)(F)F)c1` displayed a % of control in data set [6] of 81%. For the compound `Nc1cnc(N2CCc3cc(S(=O)(=O)Nc4c(F)cc(Cl)cc4F)cc(N4CCCC4=O)c32)nc1` [TP-020n], the results for the % of control in data set [7] and in data set [8] were 87% and 49%, respectively. Take `CCn1c(-c2nc3cc(C(=O)N4CCCC(N)C4)ccc3n2C)cc2ccccc21` (stereo unspecified): the XC50 in data set [9] is more than 15.8 µM. On to `COc1cc(N(C)c2ccnc3ccc(C(F)(F)F)cc23)cc(OC)c1OC`, for which the % binding in [10] turned out to be 73%.

The values above are taken from ChEMBL document CHEMBL5465560, “Selectivity Literature for EUbOPEN Chemogenomic Library” (2024).
